From article PMC6789111, “Crossing the blood-brain-barrier with nanoligand drug carriers self-assembled from a phage display peptide” (Nature Communications, 2019)
Where two headings read alike, the source gives them in different places. Peptide text beside a SMILES is read from it. * marks the point of attachment. 5FAM = O=C1OC2(c3ccc(O)cc3Oc3cc(O)ccc32)c2ccc(C(=O)*)cc21

Experiments:
[1] = system: IL-6; experiment: ELISA of IL-6 in hippocampus; type: in vivo, ICR mice; details: Ave.
Experimental: After 4, 24 and 72 h post injection, mice were sacrificed and perfused with 10 mL 0.9% (w/v) saline at a rate of 2 mL min^−1.

[2] = mouse, in vivo, iv
Experimental: After 4, 24 and 72 h post injection, mice were sacrificed and perfused with 10 mL 0.9% (w/v) saline at a rate of 2 mL min^−1. Organs (brain, heart, liver, lung, kidney, spleen) were collected for haematoxylin-eosin (H&E) analysis. Tissues were sectioned at a 5 mm thickness. H&E staining was done by submersion in Harris hematoxylin followed by differentiation through 37% HCl and Li2CO3 solution. An Olympus optical microscope (Tokyo, Japan) was used for assessing slides.

[3] = system: IL-1β; experiment: ELISA of IL-1β in hippocampus; type: in vivo, ICR mice; details: Ave.
[4] = system: TNF-α; details: Ave.
Experimental: Tissues were sectioned at a […] thickness.
Blood samples were collected for determination of red blood cell count, white blood cell count, haemoglobin, haematocrit, mean corpuscular volume, mean corpuscular haemoglobin, mean corpuscular haemoglobin concentration and platelet count (XFA6030, Perlong Medical Inc., China). Hippocampus was dissected out, rinsed in ice-cold PBS thoroughly, weighted and immediately frozen in liquid nitrogen. Tissues were cut into small pieces and homogenized in 1 mL ice-cold PBS with a glass homogeniser and sonicated with an ultrasonic cell disrupter to break the cell membranes. Homogenates were centrifuges for 5 min at 5,000 × g and supernatants were assayed immediately for quantitative determination of TNF-α, IL-6, IL-1β, Iba-1 and GFAP by corresponding ELISA kits, respectively in accordance with manufacturer’s instructions.

[5] = mouse, in vivo, iv; remark: listed apart in the source
Experimental: In some experiments, animals were transcardially perfused with 10 mL 0.9% (w/v) saline at a rate of 2 mL min^−1 through the left ventricle to remove the blood from the brain, followed by 20 mL 4% (v/v) paraformaldehyde in phosphate buffered saline (PBS, pH = 7.4). The brain was removed and post-fixed overnight in 4% (v/v) paraformaldehyde followed by dehydration with 30% (w/v) sucrose solution in PBS at 4 °C. Frozen sections were cut on a cryostat (Thermo fisher, USA). […] To visualise neurons, microglial and astrocytes, sections were first stained with antibodies against Tuj1 (1:500), Iba1 (1:300) and GFAP (1:300), respectively, and then with donkey anti-mouse Alexa Fluor®555 (1:1000 dilution) secondary antibody. DAPI staining was performed to visualise cell nuclei.

[6] = system: hCMEC/D3 cells; experiment: Competition studies of NLC uptake; type: cell-based, human
Experimental: The amyloid β1–42 oligomers were prepared using a previous method. BSA was used as control protein competitor. The fluorescence microscopy and FACS were employed to observe and quantify FAM-CGY self-assembly uptake, respectively.

[7] = system: hCMEC/D3 cells
Experimental: LDH release was followed at 24 h post transfection procedures. The measurement was performed using CytoTox96® Non-Radioactive Cytotoxicity Assay kit (Promega, WI, USA)[43]. The maximum amount of LDH in the cells, induced by the addition of a lysis solution, was measured and used as a 100% LDH release and compared with peptidoplex and siPORT-siRNA complex-induced LDH release as well as to spontaneous cellular LDH release (untreated cells).

[8] = system: GFAP; experiment: ELISA of GFAP in hippocampus; type: in vivo, ICR mice; details: Ave.
[9] = system: hCMEC/D3 cells; experiment: Uptake with internalisation inhibitors; details: 37 °C
Experimental: The medium was then removed and replaced with a fresh medium containing NLCs and the corresponding inhibitor. After 8 h of incubation at 37 °C, cells were washed three times with cell medium and analysed by FACS. Cell viability at the end of each experiment was >90% as determined by Trypan Blue exclusion test. The following inhibitors were used: 2-deoxy-D-glucose (1 mM)/sodium azide (1 mM) as energy-dependent inhibitors, worthmanin (10 μM) as macropinocytosis inhibitor, chloropromazine (30 μM) as clathrin-dependent endocytosis inhibitor, N-ethylmaleimide (5 μM) as caveolae-dependent endocytosis and transcytosis inhibitor and indomethacin (200 μM) as caveolae-dependent endocytosis inhibitor.

[10] = system: Iba-1; experiment: ELISA of Iba-1 in hippocampus; type: in vivo, ICR mice; details: Ave.
[11] = Blood count after intravenous injection; type: in vivo, ICR mice; details: mouse, in vivo, iv
Description: Supplementary Table 2. Blood count following intravenous injection of FAM-CGY NLCs in free form and complexed with siRNA
Samples WBC RBC HGB HCT MCV MCH MCHC PLT
WBC: white blood cell; RBC: red blood cell count; HGB: haemoglobin; HCT: haematocrit; MCV: mean corpuscular volume; MCH: mean corpuscular haemoglobin; MCHC: mean corpuscular
significance (*p < 0.05). The results are mean ± s.d. (n = 3 animals per group). The experiment was repeated twice with identical results. The siRNA represent BACE-1-specific siRNA. The
final concentration of the peptide conjugate was 10 µM and that of siRNA was 48 nM, based on blood volume calculation equivalent to 6% of the body weight. LPS = lipopolysaccharide.

[12] = system: hCMEC/D3 cells; experiment: Cell uptake by flow cytometry; type: cell-based, human; details: 5 µM, foetal bovine serum, 16 h, 37 °C (Supplementary Fig. 12)
Experimental: Peptide internalisation was measured by flow cytometry (FACS ArrayTM Cell Analysis, Becton, Dickinson and Company, NJ, USA). Cells (1 × 10^5 cm^−2) were seeded on 24-well plates and grown 1 day at 37 °C and 5% CO2 in order to reach 60–70% confluence. The cells were washed 3 times with pre-heated PBS. The uptake studies were initiated by adding 500 µL of 5 µM fluorescence-labelled peptides (diluted in cell medium containing with different serum concentration). Serum concentration in incubation varied from 5 to 20% (v/v). […] A total of 10,000 cells were analysed by flow cytometry.

SMILES: CC[C@H](C)[C@H](NC(=O)[C@H](CC(N)=O)NC(=O)[C@H](Cc1c[nH]cn1)NC(=O)[C@@H](NC(=O)[C@@H]1CCCN1C(=O)[C@H](CCCNC(=N)N)NC(=O)[C@H](Cc1ccc(O)cc1)NC(=O)CNC(=O)[C@H](CS)NC(=O)c1ccc2c(c1)C(=O)OC21c2ccc(O)cc2Oc2cc(O)ccc21)C(C)C)C(=O)N[C@@H](CCCNC(=N)N)C(=O)NCC(=O)N[C@@H](Cc1c[nH]cn1)C(=O)N[C@@H](Cc1c[nH]c2ccccc12)C(=O)N[C@@H](C)C(=O)N1CCC[C@H]1C(=O)NCC(=O)O [FAM-CGY] (5FAM-CGYRPVHNIRGHWAPG-OH)
- IL-6 in hippocampus (Figure 6f) ([1]; 4 h after i.v.): 6.03
- IL-6 in hippocampus (Figure 6f) ([1]; 72 h after i.v.): 6.23
- histology of liver, kidneys, heart, lungs, spleen [2]: no adverse morphological changes and inflammatory reactions
- IL-1β in hippocampus (Figure 6g) ([3]; 4 h after i.v.): 21.06
- IL-1β in hippocampus (Figure 6g) ([3]; 24 h after i.v. (LPS 24 h)): 23.58
- IL-1β in hippocampus (Figure 6g) ([3]; 72 h after i.v.): 22.65
- TNF-α in hippocampus (Figure 6e) ([4]; 4 h after i.v.): 13.40
- TNF-α in hippocampus (Figure 6e) ([4]; 24 h after i.v. (LPS 24 h)): 12.87
- TNF-α in hippocampus (Figure 6e) ([4]; 72 h after i.v.): 12.94
- association with brain parenchymal cells [5]: neurons and microglial cells, but not with astrocytes
- inhibition of NLC uptake by transferrin ([6]; 500 nM partially iron saturated human transferrin, 37 °C): ~ 50%
- FAM-CGY uptake (% of control) ([6]; 5 µM NLC + 62.5 nM Tf, Ave. All): 78.89 % of control
- FAM-CGY uptake (% of control) ([6]; 5 µM NLC + 62.5 nM Tf, Set 2): 73.26 % of control
- FAM-CGY uptake (% of control) ([6]; 5 µM NLC + 62.5 nM Tf, Set 3): 81.15 % of control
- FAM-CGY uptake (% of control) ([6]; 5 µM NLC + 62.5 nM transferrin (Tf), 16 h, FACS, Set 1): 82.27 % of control
- FAM-CGY uptake (% of control) ([6]; 5 µM NLC + 250 nM Tf+20 μg RAGE P, Ave. All): 33.57 % of control
- FAM-CGY uptake (% of control) ([6]; 5 µM NLC + 250 nM Tf, Ave. All): 53.82 % of control
- FAM-CGY uptake (% of control) ([6]; 5 µM NLC + 500 nM Tf, Ave. All): 48.73 % of control
- FAM-CGY uptake (% of control) ([6]; 5 µM NLC + 5 μg RAGE P, Ave. All): 90.44 % of control
- FAM-CGY uptake (% of control) ([6]; 5 µM NLC + 5 μg RAGE P, Set 2): 86.26 % of control
- FAM-CGY uptake (% of control) ([6]; 5 µM NLC + 5 μg RAGE P, Set 3): 92.62 % of control
- FAM-CGY uptake (% of control) ([6]; 5 µM NLC + 5 μg RAGE peptide (RAGE P), Set 1): 92.46 % of control
- FAM-CGY uptake (% of control) ([6]; 5 µM NLC + 10 μg RAGE P, Ave. All): 82.03 % of control
- FAM-CGY uptake (% of control) ([6]; 5 µM NLC + 20 μg RAGE P, Ave. All): 58.83 % of control
- FAM-CGY uptake (% of control) ([6]; 5 µM NLC + 40 μg BSA (irrelevant protein), Set 1): 108.69 % of control
- FAM-CGY uptake (% of control) ([6]; 5 µM NLC + 40 μg BSA, Ave. All): 103.56 % of control
- FAM-CGY uptake (% of control) ([6]; 5 µM NLC + 40 μg BSA, Set 2): 96.26 % of control
- FAM-CGY uptake (% of control) ([6]; 5 µM NLC + 40 μg BSA, Set 3): 105.73 % of control
- block of NLC uptake by transferrin plus RAGE peptide ligand ([6]; simultaneous presence of both): ~ 70%
- plasma membrane integrity (extracellular LDH) [7]: neither FAM-CGY NLCs nor FAM-CGY/siRNA nanoparticles perturbed plasma membrane integrity
- GFAP in hippocampus (Figure 6i) ([8]; 4 h after i.v.): 219.00
- GFAP in hippocampus (Figure 6i) ([8]; 24 h after i.v. (LPS 24 h)): 209.59
- GFAP in hippocampus (Figure 6i) ([8]; 72 h after i.v.): 220.69
- Mean flouresence (%), uptake vs Control (no inhibitor) ([9]; CPZ (chloropromazine 30 μM), 8 h, replicate 1): 50.26%
- Mean flouresence (%), uptake vs Control (no inhibitor) ([9]; CPZ (chloropromazine 30 μM), 8 h, replicate 2): 42.26%
- Mean flouresence (%), uptake vs Control (no inhibitor) ([9]; CPZ (chloropromazine 30 μM), 8 h, replicate 3): 56.45%
- Mean flouresence (%), uptake vs Control (no inhibitor) ([9]; DOG+NaN3 (1 mM/1 mM), 8 h, replicate 2): 62.26%
- Mean flouresence (%), uptake vs Control (no inhibitor) ([9]; DOG+NaN3 (1 mM/1 mM), 8 h, replicate 3): 36.09%
- Mean flouresence (%), uptake vs Control (no inhibitor) ([9]; DOG+NaN3 (2-deoxy-D-glucose 1 mM/sodium azide 1 mM), 8 h, replicate 1): 44.27%
- Mean flouresence (%), uptake vs Control (no inhibitor) ([9]; IMC (indomethacin 200 μM), 1 h pre-treatment + 8 h, FACS, FAM-CGY NLC 5 µM or Texas Red-transferrin 5 µg per well, replicate 1): 66.27%
- Mean flouresence (%), uptake vs Control (no inhibitor) ([9]; IMC (indomethacin 200 μM), 8 h, replicate 2): 72.37%
- Mean flouresence (%), uptake vs Control (no inhibitor) ([9]; IMC (indomethacin 200 μM), 8 h, replicate 3): 72.43%
- Mean flouresence (%), uptake vs Control (no inhibitor) ([9]; NEM (N-ethylmaleimide 5 μM), 8 h, replicate 1): 56.24%
- Mean flouresence (%), uptake vs Control (no inhibitor) ([9]; NEM (N-ethylmaleimide 5 μM), 8 h, replicate 2): 70.26%
- Mean flouresence (%), uptake vs Control (no inhibitor) ([9]; NEM (N-ethylmaleimide 5 μM), 8 h, replicate 3): 66.59%
- Mean flouresence (%), uptake vs Control (no inhibitor) ([9]; WOR (worthmanin 10 μM), 8 h, replicate 1): 73.57%
- Mean flouresence (%), uptake vs Control (no inhibitor) ([9]; WOR (worthmanin 10 μM), 8 h, replicate 2): 75.56%
- Mean flouresence (%), uptake vs Control (no inhibitor) ([9]; WOR (worthmanin 10 μM), 8 h, replicate 3): 60.92%
- Iba-1 in hippocampus (Figure 6h) ([10]; 4 h after i.v.): 0.93
- Iba-1 in hippocampus (Figure 6h) ([10]; 24 h after i.v. (LPS 24 h)): 1.02
- Iba-1 in hippocampus (Figure 6h) ([10]; 72 h after i.v.): 0.96
- WBC [11]: 4.32±0.53 (×109)L-1
- effect on blood count [11]: no effect on blood count
- effect of serum proteins on association with endothelial cells [12]: not affected by the presence of serum proteins
